Measured values: patent US7884115B2, “Methods and compositions for the treatment of pain and other neurological conditions” (Allergan, Inc., priority 2004, dated 2011)
Entries after “also recorded” stand apart in the source; their conditions may differ.

Assays:
[1] = tested on: allodynia induced by sulprostone; experiment: Mouse sulprostone model of allodynia; type: in vivo; settings: for attenuation of the allodynic response (analgesic activity): up to 1 mg/kg, 15 min before sulprostone 300 ng/kg IP, FIG. 3
Experimental: In this alternative model of chronic pain, allodynia can be induced in mice through intraperitoneal treatment of the animals with 300 ng/kg sulprostone (prostaglandin E2 receptor agonist) in 50% DMSO and in a volume of 5 μl. In this model, the pain response to stroking the flank with a paint brush is scored 8 times over a 35 minute period starting 15 minutes following spinal administration of sulprostone. Minami et al., 57 Pain 217-223 (1994), hereby incorporated by reference herein. Sulprostone treatment alone elicits a score of 12-13 on a 16-point scale.
In either model, the compounds are formulated in d-H2O and given in a volume of 1 ml/kg body weight for intraperitoneal (IP) dosing.
Six mice per group are rendered allodynic by injection of one of the following agents: 300 ng/kg sulprostone in DMSO IP, 100 ng/kg phenylephrine (PE) in dH2O IP, or 100 ng NMDA in DMSO intrathecally (IT). Fifteen minutes before administration of the allodynia-inducing agents, the experimental mice are given 1 mg/kg NB-DNJ. Thirty (30) minutes following administration of NB-DNJ, the allodynic response is monitored as described by brushing the flank of each mouse with a paint brush.
Five to six mice per group are rendered allodynic by injection of 300 ng/kg sulprostone IP. Fifteen minutes before inducement of an allodynic response, experimental mice are given one of the following: 1 mg/kg, 300 μg/kg, and 100 μg/kg NB-DNJ; 1 mg/kg N-butyldeoxymannojirimycin; 1 mg/kg N-5-carboxy-1-deoxynojirimycin; 1 mg/kg N-dodecyldeoxynojirimycin; 1 mg/kg N-ethyl-1-deoxynojirimycin; 1 mg/kg, 300 μg/kg, and 30 μg/kg D-glucaro-delta-lactam; 1 mg/kg 4-O-a-D-glucopyranosylmoranoline; 1 mg/kg nojirimycin bisulfite; 1 mg/kg nojirimycin-1-sulfonic acid; 1 mg/kg N-(n-nonyl)deoxynojirimycin; 1 mg/kg N(7-oxadecyl)deoxynojirimycin; and 1 mg/kg N-(7-oxa-9,9,9-trifluorononyl)deoxynojirimycin. The DMSO vehicle and sulprostone alone are used as controls.
Starting thirty (30) minutes following administration of NB-DNJ, the allodynic response of each mouse was monitored by brushing the flank of the mouse with a paint brush.
Five to six mice per group are rendered allodynic by injection of one of the following: 300 ng/kg sulprostone IP, 100 ng/kg phenylephrine (PE) IP, or 100 ng NMDA intrathecally (IT). Fifteen minutes prior to the induction of allodynia, the mice are given D-glucaro-delta-lactam IP at […], or 1 mg/kg. PE or NMDA-treated mice are given 1 mg/kg D-glucaro-delta-lactam IP.

[2] = tested on: primary rat brain cortical neurons treated with kainate; experiment: Kainate-induced excitotoxicity in primary cortical neurons (LDH release); type: cell-based
Experimental: (§1) Primary rat brain cortical neurons were cultured as follows. In brief, rat cerebral cortices were removed from brains of the 16 day-old-fetal rats. The neocortices were gently triturated and plated on 24 well plates (300,000 viable cells/cm2) in plating Modified Eagle's Medium (MEM) supplemented with 10% horse serum, 10% fetal calf serum and 2 mM L-glutamine. Cultures were maintained at 37 C in a humidified 5% CO2 atmosphere.
(§2) After 4 days' growth (DIV 4), half of the medium was replaced by a medium identical to the plating medium but lacking calf serum. At DIV4, 10 μM 5-fluoro-2-deoxyuridine was included to each well to halt overgrowth of glia. Mixed cultures of neurons and glia were then fed at DIV7 and DIV11 with MEM plus 5% horse serum previously conditioned by growth with cortical astrocytes for 24 h.
Excitotoxicity was induced in these cells by addition of 50 μM kainate or 20 μM N-methyl-D-aspartate plus 10 μM D-serine to each well.
(§3) Under the experimental conditions used, i.e. after 6 hours addition of excitotoxic agent, 40% toxicity is generally observed and measured by determination of the amount of lactate dehydrogenase (LDH) released into the medium following membrane degradation. Such assay methods are well-known; a kit for conducting a homogeneous form of the LDH assay format is sold by Promega under the name CytoTox ONE® Homogenous Membrane Integrity Assay. Overall cell injury was assessed microscopically under phase-contrast optics or by measuring amount of LDH released into the bathing medium 24 hr after neurotoxic insults (see, e.g., Koh and Choi, J. NEUROSCI. METHODS 20: 83-90, 1987), hereby incorporated by reference herein.
[…] The final results are normalized optical density (OD) values (treated cells/untreated control cells), where a value of 1 represents 100% neuronal survival and a value of 0.6 represents 60% survival.

[3] = tested on: primary rat brain cortical neurons treated with NMDA plus D-serine; experiment: NMDA/serine-induced excitotoxicity in primary cortical neurons (LDH release); type: cell-based; settings: 20 μM NMDA plus 10 μM D-serine, 3 h or 16 h preincubation; FIGS. 8A and 8B
Experimental: as §1
as §2, with “h. […]” for “h.”
as §3, with “Such assay methods are well-known; a kit for conducting a homogeneous form of the LDH assay format is sold by Promega under the name CytoTox ONE® Homogenous Membrane Integrity Assay.” left out, “herein. […]” for “herein.”

[4] = cited from earlier work
[5] = tested on: primary rat brain cortical neurons; experiment: Intrinsic cytotoxicity in neuronal cultures; type: cell-based
Experimental: as §1, §2
as §3, with “Such assay methods are well-known; a kit for conducting a homogeneous form of the LDH assay format is sold by Promega under the name CytoTox ONE® Homogenous Membrane Integrity Assay.” left out, “herein. […]” for “herein.”

For `O=C(O)[C@H]1NC(=O)[C@H](O)[C@@H](O)[C@@H]1O` [D-glucaro-delta-lactam], the “attenuation of the allodynic response (analgesic activity)” value [1] was “attenuate the allodynic response”.
With `CCCCN1C[C@H](O)[C@@H](O)[C@H](O)[C@H]1CO` [NB-DNJ, N-butyl-1-deoxy-nojirimycin] the “reversal of the allodynic response” value ([1]; 1 mg/kg given 15 min before sulprostone 300 ng/kg IP, FIG. 1) was “significant reversal”, the “attenuation of the allodynic response (analgesic activity)” value [1] was “attenuate the allodynic response” and the “attenuation of kainate-induced excitotoxicity” value ([2]; 50 μM kainate, compound added without pre-incubation, FIG. 7A) was “attenuation of kainate-induced excitotoxicity; also recorded: active without any preincubation”. The neuronal death ([2]; kainate-induced toxicity, various concentrations) was “reduced neuronal death in a dose-dependent manner”, the neuronal death [3] was “reduced neuronal death in a dose-dependent manner” and the aqueous solubility [4] was “greater than 1000 mg/ml”. The intrinsic cytotoxicity [5] was “do not show any significant intrinsic cytotoxicity”.
